Experiment [1] deals with Delta Variant hCoV-19/USA/MD-HP05285/2021 (Lineage B.1.617.2). Kind of experiment: microbe, parasite or virus in culture. It is filed as cell-based, SARS-CoV-2. The following applies: for IC50: Severe acute respiratory syndrome coronavirus 2.
Experiment [2] concerns Omicron Variant hCoV-19/USA/MD-HP20874/2021 (Lineage B.1.1.529). Kind of experiment: microbe, parasite or virus in culture. It counts as cell-based, SARS-CoV-2. Conditions: Severe acute respiratory syndrome coronavirus 2.

Like-named read-outs stand apart in the source and are kept apart here.

For `Cc1ccc(S(=O)(=O)N[C@@H](Cc2c[nH]c3ccccc23)C(=O)NC2CCC2=O)cc1` (stereo partly drawn) [Compound 4, (2S)-3-(1H-Indol-3-yl)-2-((4-methylphenyl)sulfonamido)-N-(2-oxocyclobutyl)propanamide], the “difference in IC50, variants vs wild-type” value in experiment [1] is 10 to 20 fold. The IC50 in experiment [1] (read-out: IC50, Delta VOC (Figure 5)) stood at 943 ± 526 nM; in experiment [1] (read-out: IC50 Values For inhibition of SARS-CoV-2 Mediated Cell Death, Delta), 220 nM; in experiment [2] (read-out: IC50, Omicron VOC (Figure 5)), 2590 ± 1280 nM; in experiment [2] (read-out: IC50 Values For inhibition of SARS-CoV-2 Mediated Cell Death, Omicron), 1580 nM.
